Measurements as given in ChEMBL document CHEMBL3421630, “Myxochelins target human 5-lipoxygenase” (J Nat Prod, 2015).
The source made the active and inactive calls. No cut-off for these calls is given here.

Key:
[1] = target: T1, Prostaglandin E synthase (Homo sapiens) (UniProt O14684); experiment: Inhibition of m-PGES1 in IL-1beta-induced human A549 cell microsomes assessed as reduction in […]PGE2 production up to 100 uM pre-incubated for 15 mins before PGH2 addition by UV detection based reverse-phase high-performance liquid chromatography
T1 sequence (whole entry): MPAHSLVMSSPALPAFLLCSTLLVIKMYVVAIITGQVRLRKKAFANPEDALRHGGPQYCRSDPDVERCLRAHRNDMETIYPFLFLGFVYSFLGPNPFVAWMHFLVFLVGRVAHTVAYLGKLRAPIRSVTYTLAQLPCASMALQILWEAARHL

[2] = Siderophore activity by chrome azurol S assay
K562 = experiment: Inhibition of cell proliferation of human K562 cells after 72 hrs by cell-titer-blue assay; format: functional, cell-based; conditions: K562, 72 h
HeLa = experiment: Inhibition of cell proliferation of human HeLa cells after 72 hrs by methylene blue dye based assay; format: functional
[3] = target: T2, Polyunsaturated fatty acid 5-lipoxygenase (Homo sapiens, UniProt P09917); experiment: (§1) Inhibition of human recombinant 5-LOX expressed in Escherichia coli BL21 DE3 assessed as reduction in 5-LO product formation pre-incubated for 10 mins by RP-HPLC method
T2 sequence (P09917 whole entry): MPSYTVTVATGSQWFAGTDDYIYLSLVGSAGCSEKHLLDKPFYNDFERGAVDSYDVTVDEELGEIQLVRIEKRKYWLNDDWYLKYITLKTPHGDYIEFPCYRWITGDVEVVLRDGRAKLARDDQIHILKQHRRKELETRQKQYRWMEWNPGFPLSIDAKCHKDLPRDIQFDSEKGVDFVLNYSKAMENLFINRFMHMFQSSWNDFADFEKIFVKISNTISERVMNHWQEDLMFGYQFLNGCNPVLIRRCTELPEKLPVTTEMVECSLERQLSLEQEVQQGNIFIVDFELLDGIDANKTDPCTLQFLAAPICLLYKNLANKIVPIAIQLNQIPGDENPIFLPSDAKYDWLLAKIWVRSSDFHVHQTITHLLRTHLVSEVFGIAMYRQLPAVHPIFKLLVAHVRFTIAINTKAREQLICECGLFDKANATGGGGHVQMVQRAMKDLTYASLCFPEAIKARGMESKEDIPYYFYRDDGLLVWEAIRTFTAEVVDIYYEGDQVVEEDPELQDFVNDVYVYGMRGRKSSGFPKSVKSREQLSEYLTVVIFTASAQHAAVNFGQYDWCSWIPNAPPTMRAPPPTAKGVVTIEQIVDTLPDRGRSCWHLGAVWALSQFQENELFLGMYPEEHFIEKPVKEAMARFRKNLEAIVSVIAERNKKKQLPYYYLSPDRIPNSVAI

[4] = target: T3, Polyunsaturated fatty acid 5-lipoxygenase (Homo sapiens) (UniProt P09917); experiment: as §1
T3 sequence (whole entry): T2 sequence (P09917 whole entry)

[5] = target: T3, Polyunsaturated fatty acid 5-lipoxygenase (Homo sapiens); experiment: Inhibition of human recombinant 5-LOX expressed in Escherichia coli BL21 DE3 assessed as reduction in 5-LO product formation at 10 uM pre-incubated for 10 mins by RP-HPLC method
[6] = target: T3, Polyunsaturated fatty acid 5-lipoxygenase (Homo sapiens); conditions: 3 uM
Description: Inhibition of human recombinant 5-LOX expressed in Escherichia coli BL21 DE3 assessed as reduction in 5-LO product formation at 3 uM pre-incubated for 10 mins by RP-HPLC method

Row | inhibition [1] | IC50 (K562) | IC50 (HeLa) | IC50 [3] | inhibition [4] | inhibition [5] | inhibition [6] | Compound | Activity [2]
1 | inactive | 3.9 µM | 305 µM | 1.9 µM | Dose-dependent effect | Active | – | O=C(NCCCC[C@@H](CO)NC(=O)c1cccc(O)c1O)c1cccc(O)c1O | Active
2 | – | – | – | – | – | – | Active | CC(c1cc2ccccc2s1)N(O)C(N)=O (stereo not drawn) | –
